Experiment [1] has as its system MGO-AGEs-induced ROS in THP-1 monocytes. Description: Anti-oxidation activity, DCFH-DA assay of MGO-AGEs-mediated ROS in monocytes. In kind it is cell-based, human. Particulars: for ROS (DCF fluorescence) in MGO-AGEs-treated monocytes: 100 μM (maximum inhibition), MGO-AGEs 50 μg/mL, 24 h; for antioxidant activity / ROS production inhibition (in words): MGO-AGEs 50 μg/mL-treated THP-1 monocytes. On the procedure: Anti-oxidation activity: The measurement of effect of derivatives on AGEs-mediated ROS was based on the previously reported protocol of Soumyarani and colleagues with slight amendments. Initially, 1×10^6 monocytes/mL were loaded in sterile 96-well flat bottom black fluorescent plate, and pre-incubated with DCFH-DA (10 μM; Sigma-Aldrich Chemical Corporation, St. Louis, Missouri, USA) for 45 min at 37° C. Followed by the incubation, antiglycating, non-toxic carbazole-linked triazole derivatives (10, 30, 50, and 100 μM) were added to the wells for 1 h before co-treatment of cells with MGO-AGEs (50 μg/mL) for next 24 h. Next, the fluorometric measurement of converted DCFH into oxidized DCF product was carried out via spectrofluorimeter (Varioskanmicroplate reader, Thermo Fisher Scientific, USA) using 485 nm excitation and 520 nm emission wavelengths. Various controls were plated in each experiment. Wells containing culture RPMI with MGO-AGEs (50 μg/mL) and H2O2 ([…]) served as positive controls, while cells containing BSA were taken as negative control.

Experiment [2] deals with MGO-mediated BSA glycation. Description: In vitro antiglycation activity, MGO-BSA glycation assay (fluorescence). In kind it is biochemical, bovine. Particulars: for IC50 / % inhibition of MGO-BSA glycation: BSA 10 mg/mL, MGO 0.1 M, 24 h, 37° C.; for IC50: read-out: IC50 antiglycation, MGO-BSA model; for % inhibition of MGO-BSA glycation: compounds at 1 mM. On the procedure: In vitro antiglycation activity: The MGO-BSA assay was performed as per optimized protocol of Jahan, H. et al with slight modifications. Initially, the antiglycation activity of parent compound carbazole (1), and carbazole-linked 1,2,3 triazoles 2-16 were identified at 1 mM using MGO-BSA model. […] BSA (10 mg/mL) incubated with MGO (0.1 M) for 24 h at 37° C. using phosphate-azide buffer (0.1 mM), served as a positive control. The wells with BSA only were taken as negative control. Whereas, rutin and quercetin were used as standard antiglycation agents. After 24 h of incubation, the fluorescence of each well was measured by using microplate reader (Varioskan lux, Thermo Fisher Scientific, 319 Scientific, USA) at 355 nm excitation, and 460 nm emission.
The % inhibition of MGO-BSA-mediated by carbazole-triazole derivatives was quantified by using the following formula: […]
The IC50 of active antiglycation compounds were identified by using EZ-FIT Enzyme Kinetics Program (Perrella Scientific Inc., Amherst, USA).

Experiment [3] has as its system COX-2. Description: COX-2 protein levels analysis by immunoblotting. The format is cell-based. Particulars: human monocytes co-treated with MGO-AGEs 50 μg/mL; immunoblot densitometry. The method, then:
COX-2 protein levels analysis: The 50 μg/mL of protein was loaded onto 10% sodium dodecyl sulfate-polymerized acrylamide gel electrophoresis (SDS-PAGE), and transferred to nitrocellulose membranes using power blotter XL System (Invitrogen; Thermo Fisher Scientific). Subsequently, the membrane was incubated for 1 h in 1% bovine serum albumin in PBS with 0.1% Tween-20 to block unspecified binding. The protein bands of the membrane were probed with primary monoclonal antibody COX-2 (Thermo Fisher Scientific, Waltham, MA, USA), and B-actin (Cloud-Clone Corp., Wuhan, China) for overnight at 4° C. Following incubation, the membrane was rinsed with tris buffer saline tween (TBST) three times, and then exposed to secondary antibody (HRP mouse mono anti-rabbit IgG; Abeam, Cambridge, UK) at room temperature for an hour. The washing was again carried three times with TBST, and then the membrane was exposed to ECL (Sangon biotech, Shanghai, China) to visualize the bands in Western Blot Detection System (Thermo Fisher Scientific, Waltham, MA, USA). The densitometry of immuno-positive COX-2, and β-actin bands was used by Image J.

Experiment [4] has as its system PGE2. Description: PGE2 levels analysis by ELISA in THP-1 culture supernatants. Particulars: THP-1, compounds 1 h, then AGEs 50 μg/mL. In kind it is cell-based, human. The method, then: PGE2 levels analysis: ELISA-based method was employed to identify the concentration of PGE2 in culture supernatants of THP-1 cells that was initially exposed with compounds for 1 h, and then stimulated with AGEs (50 μg/mL). All the steps were followed according to the manufacturer's protocols.

For experiment [5], the system named is NF-κB (p65) translocation in monocytes. Description: NF-κB (p65) translocation analysis by immunocytochemistry. The format is cell-based, human. The settings on record: compounds 100 μM, 1 h pre-incubation; AGEs 50 μg/mL 1 h; MGO-AGEs control 75 RFU, BSA 11 RFU. On the procedure: NF-κB (p^65) translocation analysis: The monocytes at the density of 1×10^6 cells/mL were pre-incubated with compounds (100 μM) for an h, and then co-incubated with AGEs (50 μg/mL) for another 1 h in a 24-well plate at 37° C. Following treatment, cells were fixed with paraformaldehyde (4% PFA; 10 min), and permeabilized with Triton X-100 (0.2%; 10 min). Next, the cells were rinsed with chilled PBS three times, and incubated with bovine serum albumin (1% BSA; 1 h) to block the non-specific binding sites. Cells were exposed to primary antibody against NF-κB (p 65) (1:300 dilution, Thermo Fisher Scientific, Waltham, MA, USA) for overnight at 4° C. Subsequently followed by washing the cells with chilled PBS three times, secondary antibody (polyclonal fluorescein isothiocyanate (FITC)-conjugated antibody) to rabbit IgG (1:1000 dilution, Abeam, Cambridge, UK) was used.
Nuclei were counterstained by using DAPI (Thermo Fisher Scientific, Waltham, MA, USA). The BSA-treated monocytes (50 μg/mL) had served as a negative control, while AGEs-treated monocytes (50 μg/mL) as positive control. All the images were taken by using Nikon microscope (Nikon, Tokyo, Japan). The quantification of images was carried out via ImageJ (Image processing and analysis in Java-NIH).

Values joined by “and” are separate entries in the source; they are usually repeats but may differ in a detail not shown here. Equal values may be shown once.

As usually defined, the IC50 is the concentration that gives 50% inhibition. Turning to `O=C(Cn1cc(Cn2c3ccccc3c3ccccc32)nn1)c1ccc([N+](=O)[O-])cc1` [Compound 12, 2-(4-((9H-Carbazole-9-yl)methyl)-1H-1,2,3-triazole-1-y1)-1-(4-nitrophenyl)ethan-1-one], in experiment [1], the “ROS (DCF fluorescence) in MGO-AGEs-treated monocytes” value (shortened to “ROS (DCF fluorescence)”) is 6.32 RFU and the “antioxidant activity / ROS production inhibition (in words)” value is “excellent ROS production inhibition”. In experiment [2], the “antiglycation activity in MGO-BSA model (in words)” value is on record as “excellent antiglycation activity”, the IC50 stood at 76.1 ± 6 µM and the “% inhibition of MGO-BSA glycation” value is 83.7%. Moreover, the “reduction in COX-2 levels compared to MGO-BSA-treated cells” value (from here on “reduction in COX-2 levels”) in experiment [3] is 2.11 fold and 3 fold. Further, in experiment [4], the “effect on PGE2 levels (in words)” value was “reduced PGE2 levels significantly”. Besides, the “NF-κB translocation in MGO-AGEs-treated monocytes” value (shortened to “NF-κB translocation”) in experiment [5] is recorded as 33 RFU.
As to `Cc1ncc([N+](=O)[O-])n1CCn1cc(Cn2c3ccccc3c3ccccc32)nn1` [Compound 13, 9-((1-(2-(2-Methyl-5-nitro-1H-imidazol-1-yl)ethyl)-1H1,2,3-triazol-4-yl)methyl)-9H-carbazole], in experiment [1], the “ROS (DCF fluorescence)” value is given as 8.75 RFU and the “antioxidant activity / ROS production inhibition (in words)” value is on record as “excellent ROS production inhibition”. Further, in experiment [2], the “antiglycation activity in MGO-BSA model (in words)” value was “good activity”, the IC50 was 135 ± 5 µM and the “% inhibition of MGO-BSA glycation” value is on record as 77.8%. Further, the “effect on PGE2 levels (in words)” value in experiment [4] was “reduced PGE2 levels significantly”. Besides, the “NF-κB translocation” value in experiment [5] is recorded as 54 RFU.
With `N.S=C(S)N1CCCC1` [PDTC, reference compound], the “ROS (DCF fluorescence)” value in experiment [1] was determined as 7.84 RFU. For the same compound, the “reduction in COX-2 levels” value in experiment [3] worked out at 1.60 fold. Further, the “effect on PGE2 levels (in words)” value in experiment [4] is “relatively more suppression than quercetin”. Besides, the “NF-κB translocation” value in experiment [5] came to 45 RFU.
For `O=c1c(O)c(-c2ccc(O)c(O)c2)oc2cc(O)cc(O)c12` [Quercetin, 2-(3,4-dihydroxyphenyl)-3,5,7-trihydroxy-4H-chromen-4-one, reference compound], in experiment [1], the “ROS (DCF fluorescence)” value is recorded as 8.39 RFU. In experiment [2], the half-inhibitory concentration (IC50) came out at 138 ± 4 µM and the “% inhibition of MGO-BSA glycation” value worked out at 58%. Moreover, the “reduction in COX-2 levels” value in experiment [3] is 1.31 fold. In experiment [5], the “NF-κB translocation” value is given as 55 RFU.
`C[C@@H]1O[C@@H](OC[C@H]2O[C@@H](Oc3c(-c4ccc(O)c(O)c4)oc4cc(O)cc(O)c4c3=O)[C@H](O)[C@@H](O)[C@@H]2O)[C@H](O)[C@H](O)[C@H]1O` [Rutin, 2-(3,4-Dihydroxyphenyl)-5,7-dihydroxy-4-oxo-4H-chromen-3-yl 6-O-(6-deoxy-alpha-L-mannopyranosyl)-beta-D-glucopyranoside, reference compound]: the “ROS (DCF fluorescence)” value in experiment [1] stood at 7.44 RFU. In experiment [2], the IC50 was 104 ± 2 µM and the “% inhibition of MGO-BSA glycation” value is 67%. Also, the “reduction in COX-2 levels” value in experiment [3] is on record as 1.65 fold. Also, the “effect on PGE2 levels (in words)” value in experiment [4] is given as “relatively more suppression than quercetin”. Further, the “NF-κB translocation” value in experiment [5] is 43 RFU.

(Values after US11925622B2, “Role of novel carbazole linked 1, 2, 3- triazole analogs in alleviating methylglyoxal-mediated late diabetic vascular complications” (priority 2021, dated 2024).)
